In patent publication EP0341735A1, “N-acetyl-3-fluoroneuraminic acid as antiviral drug” (priority 1988, dated 1989):

Tests used:
Female ICR mice = assay: Acute toxicity test by intravenous injection; type: in vivo; conditions: for Number of deaths: Intravenous injection, 10 mice per level, observation period 14 days
Procedure: The acute toxicity test of Compound 1 was conducted by an intravenous injection in female mice.
Animals used: Female ICR mice (6 week old) Medicine concentration: 13 to 15 W/V % in distilled water Number of mice for each level: 10 Observation period: 14 days.

[1] = tested on: sialidase produced by Arthrobacter ureaffacients; assay: Sialidase inhibition, 4-MU-NeuAc fluorescence assay; type: biochemical, Arthrobacter ureafaciens; conditions: for Inhibition rate / NeuAc released: substrate 4-MU-NeuAc, pH 4.2, 37 °C, 15 min
Procedure: (§1) 100 µ ℓ of a 0.5 mM solution of 4-methylumbelliferyl-N-acetylneuraminic acid (4-MU-NeuAc) (a product of Nakarai Kagaku Co., Ltd) of the following formula: [drawing 15]
(§2) 100 µ ℓ of a 200 mM sodium acetate buffer (pH 4.2) and 100 µ ℓ of N-acetyl-3-fluoroneuraminic acid (compound 1) 4 to 400 µM were added to an enzyme solution ([…]) (10 mU/ml) of sialidase (a product of Nakarai Kagaku Co., Ltd.) product from Arthrobacter ureafaciens in a test tube, and the reaction was conducted in a water bath at 37 °C for 15 min. Then, 3.6 ml of a 200 mM glycine/NaOH buffer (pH 10.4) was added to the reaction mixture in the test tube to terminate the reaction. the concentration of 4-methylumbelliferone formed in the reaction solution was determined from its fluorescence intensity at an excitation wave length of 360 nm and an emission wave length of 440 nm with a fluorescence spectrophotometer (a product of Hitachi, Ltd.). The amount of free sialic acid was determined from this value.
(§3) The sialidase inhibition rate was determined according to the following formula: [formula]

[2] = tested on: sialidase produced by Streptococcus sp.; assay: as above; type: biochemical; conditions: same procedure as Example 1
Procedure: as §1, §2, §3
(§4) The same procedure as that of Example 1 was repeated except that sialidases produced by Vibrio colerae and Streptococcus sp. were used, and then the inhibition rate of Compound 1 was determined.

[3] = target: sialidase produced by Vibrio colerae (Vibrio cholerae serotype O1, UniProt P0C6E9); assay: as above; type: biochemical; conditions: same procedure as Example 1
Sequence of sialidase produced by Vibrio colerae (P0C6E9 25-781): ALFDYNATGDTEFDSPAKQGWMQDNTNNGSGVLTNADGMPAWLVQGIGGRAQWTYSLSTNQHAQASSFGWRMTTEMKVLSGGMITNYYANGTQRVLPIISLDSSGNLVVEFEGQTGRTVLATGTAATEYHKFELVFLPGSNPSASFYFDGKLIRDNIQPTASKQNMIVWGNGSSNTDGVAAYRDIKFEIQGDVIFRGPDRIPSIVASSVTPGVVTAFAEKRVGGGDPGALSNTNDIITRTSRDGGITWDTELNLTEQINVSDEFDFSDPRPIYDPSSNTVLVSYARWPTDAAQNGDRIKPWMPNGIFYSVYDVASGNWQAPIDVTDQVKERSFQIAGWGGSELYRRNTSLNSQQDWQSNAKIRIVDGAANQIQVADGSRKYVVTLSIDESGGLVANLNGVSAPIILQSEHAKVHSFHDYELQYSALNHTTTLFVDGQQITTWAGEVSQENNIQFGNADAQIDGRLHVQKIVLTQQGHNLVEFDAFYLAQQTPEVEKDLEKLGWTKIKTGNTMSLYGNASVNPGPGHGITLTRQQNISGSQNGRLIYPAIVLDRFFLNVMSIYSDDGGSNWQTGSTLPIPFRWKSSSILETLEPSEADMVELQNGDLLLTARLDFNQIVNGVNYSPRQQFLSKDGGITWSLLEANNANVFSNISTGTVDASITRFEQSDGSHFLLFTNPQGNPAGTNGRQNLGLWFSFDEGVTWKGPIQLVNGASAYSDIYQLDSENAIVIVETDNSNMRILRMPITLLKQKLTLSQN
Procedure: as §1, §2, §3, §4

CC(=O)N[C@H]1[C@H]([C@H](O)[C@H](O)CO)OC(O)(C(=O)O)C(F)[C@@H]1O (stereo partly drawn) [Compound 1, N-acetyl-3-fluoroneuraminic acid]
Number of deaths (Female ICR mice; dose 200 mg): 0
Number of deaths (Female ICR mice; dose 400 mg): 0
Number of deaths (Female ICR mice; dose 600 mg): 0
toxicity (in words) (Female ICR mice; conclusion from Table 4): quite low
Inhibition rate ([1]; Compound 1 at 0.001 mM): 14.3%
NeuAc released ([1]; Compound 1 at 0.001 mM): 23.0 n mol
Inhibition rate ([1]; Compound 1 at 0.01 mM): 48.9%
NeuAc released ([1]; Compound 1 at 0.01 mM): 14.0 n mol
Inhibition rate ([1]; Compound 1 at 0.1 mM): 82.0%
NeuAc released ([1]; Compound 1 at 0.1 mM): 4.9 n mol
inhibition pattern (Dixon plot) ([1]; Fig. 1, two different substrate concentrations): competitive with the substrate
activity of sialidase (inhibition, in words) ([1]; conclusion from Table 1): remarkably inhibits
Inhibition rate ([2]; Compound 1 at 0.001 mM): 7.4%
NeuAc released ([2]; Compound 1 at 0.001 mM): 10.5 n mol
Inhibition rate ([2]; Compound 1 at 0.01 mM): 24.6%
NeuAc released ([2]; Compound 1 at 0.01 mM): 8.5 n mol
Inhibition rate ([2]; Compound 1 at 0.1 mM): 75.4%
NeuAc released ([2]; Compound 1 at 0.1 mM): 2.8 n mol
NeuAc released ([3]; Compound 1 at 0.001 mM): 5.9 n mol
inhibition at 1 µM ([3]; Compound 1 at 0.001 mM, read-out: Inhibition rate): -0.2%
NeuAc released ([3]; Compound 1 at 0.01 mM): 5.3 n mol
inhibition at 10 µM ([3]; Compound 1 at 0.01 mM, read-out: Inhibition rate): 8.4%
NeuAc released ([3]; Compound 1 at 0.1 mM): 2.8 n mol
inhibition at 100 µM ([3]; Compound 1 at 0.1 mM, read-out: Inhibition rate): 52.7%
